In ChEMBL document CHEMBL5050844 (2019):

How the values were obtained:
Format in all cases: functional, T cell line
[1] = Induction of anti-CD3/CD28 antibodies-stimulated human T cell activation at 4 uM assessed fold increase in IL-2 secretion measured by ELISA assay
[2] = Induction of anti-CD3/CD28 antibodies-stimulated human T cell activation at 1 uM assessed fold increase in IL-2 secretion measured by ELISA assay
[3] = Induction of anti-CD3/CD28 antibodies-stimulated human T cell activation at 0.3 uM assessed fold increase in IL-2 secretion measured by ELISA assay
[4] = Induction of anti-CD3 antibodies-stimulated human T cell activation at 8 uM assessed fold increase in IL-2 secretion measured by ELISA assay; also: reference of the scale not given here
[5] = Induction of anti-CD3 antibodies-stimulated human T cell activation at 1 uM assessed fold increase in IL-2 secretion measured by ELISA assay; also: reference of the scale not given here
[6] = Induction of anti-CD3/CD28 antibodies-stimulated human T cell activation at 4 uM assessed fold increase in CD25 expression measured by ELISA assay
[7] = Induction of anti-CD3/CD28 antibodies-stimulated human T cell activation at 1 uM assessed fold increase in CD25 expression measured by ELISA assay
[8] = Induction of anti-CD3/CD28 antibodies-stimulated human T cell activation at 0.3 uM assessed fold increase in CD25 expression measured by ELISA assay
[9] = Induction of anti-CD3 antibodies-stimulated human T cell activation at 8 uM assessed fold increase in CD25 expression measured by ELISA assay; also: reference of the scale not given here
[10] = Induction of anti-CD3 antibodies-stimulated human T cell activation at 1 uM assessed fold increase in CD25 expression measured by ELISA assay; also: reference of the scale not given here

Row | SMILES | fold change (FC) [1] | fold change (FC) [2] | fold change (FC) [3] | fold change (FC) [4] | fold change (FC) [5] | fold change (FC) [6] | fold change (FC) [7] | fold change (FC) [8] | fold change (FC) [9] | fold change (FC) [10]
1 | Cn1cnnc1C[C@H](c1cccc(N2Cc3c(cccc3C(F)(F)F)C2=O)c1)C(F)(F)F | 1.01 | 1.01 | 1.01 | 0.101 | 0.051 | 1.01 | 1.01 | 1.01 | 0.801 | 0.601
2 | Cc1conc1C[C@@H](C)c1cccc(N2Cc3c(cccc3C(F)(F)F)C2=O)c1 | 1.01 | <=1 | <=1 | 0.151 | 0.051 | 1.01 | <=1 | 1.01 | 0.801 | 0.601
3 | C[C@H](Cc1nncn1C)c1cccc(NC(=O)c2cc(C(=O)N3C[C@@H](O)C[C@H]3C)ccn2)c1 | <=1 | <=1 | <=1 | 0.101 | 0.101 | 1.51 | 1.01 | 1.01 | <=0.6 | <=0.6
4 | Cc1ccc(C(=O)Nc2cccc([C@H](C)Sc3nncn3C)c2)nc1C(F)(F)F | 1.01 | <=1 | <=1 | <=0.05 | <=0.05 | 1.01 | 1.01 | <=1 | >=1.001 | 0.601
5 | Cc1cnnn1C[C@@H](C)c1cccc(NC(=O)c2cccc(C(F)(F)F)n2)c1 | 2.51 | 1.01 | 1.01 | 0.151 | 0.051 | 1.01 | 1.01 | <=1 | 0.801 | 0.601
6 | C[C@H](Cc1nncn1C)c1cccc(NC(=O)c2cc(C(F)(F)F)n[nH]2)c1 | 1.01 | 1.01 | 1.01 | 0.101 | 0.051 | 1.01 | 1.01 | 1.01 | 0.601 | 0.601
7 | C[C@H](Cc1nocc1C(F)(F)F)c1cccc(N2Cc3c(cc(C(=O)N4CC[C@H](O)C4)cc3C(F)(F)F)C2=O)c1 | 2.51 | 1.01 | 1.01 | >=0.201 | 0.051 | 1.31 | 1.01 | 1.01 | >=1.001 | 0.601
8 | C[C@H](Cc1nncn1C)c1cccc(NC(=O)c2cc(C(C)(C)O)c(Cl)cn2)c1 | 5 | 1.01 | 2.51 | 0.101 | 0.051 | >=1.76 | 1.31 | 1.01 | <=0.6 | <=0.6
9 | Cn1cnnc1CC(c1cccc(N2Cc3c(cccc3C(F)(F)F)C2=O)c1)C(F)(F)F (stereo not given) | 1.01 | <=1 | <=1 | 0.151 | 0.101 | 1.01 | 1.01 | 1.01 | 0.801 | 0.801
10 | Cn1cnnc1[C@@H]1CC[C@@H]1c1cccc(N2Cc3c(cccc3C(F)(F)F)C2=O)c1 | >=7.5 | >=7.5 | 5 | >=0.201 | 0.101 | 1.01 | 1.01 | 1.01 | 0.801 | 0.601
11 | Cn1cnnc1C(F)(F)[C@](C)(F)c1cccc(N2Cc3c(cc(-c4cncc(F)c4)cc3C(F)(F)F)C2=O)c1 | 2.51 | 2.51 | 1.01 | 0.151 | 0.101 | 1.01 | 1.01 | <=1 | 0.801 | 0.601
